Experimental data published in patent US10406227B2, “Photoactivated molecules for light-induced modulation of the activity of electrically excitable cells and methods of using same” (University of Southern California, priority 2012, dated 2019).

Assays:
HEK293T cells = assay: Whole cell patch clamp, current-clamp membrane potential under blue light; assay type: cell-based, human
Description: Membrane potential was monitored using whole cell patch clamp in current-clamp mode. Cultured cells (INS and HEK293) were plated on a glass-bottomed culture dishes 1-3 days prior to recording. Cells were incubated in standard extracellular solution with or without 10 μM RubpyC17 compound for approximately 1.5-2 minutes, then washed and incubated with standard extracellular solution without additional supplementation, or with 2-5 mM ascorbate, 100 μM sodium ferrocyanide, or 100-200 μM potassium ferricyanide, as indicated. The chamber was transferred to the microscope stage. Extracellular solution consisted of 140 mM NaCl, 2.8 mM KCl, 10 mM HEPES, 1 mM MgCl2, 2 mM CaCl2, 10 mM glucose, pH adjusted to 7.3, and osmolarity adjusted to 300-310. Conventional whole-cell patch clamp recordings were performed with an EPC-9 amplifier and Pulse software (HEKA Electronics). Pipette electrodes of 1.8-3.5 Mohm were fire polished before use. Intracellular solution consisted of: 145 mM KCl, 10 mM NaCl, 1 mM MgCl2, 1 mM EGTA, 2 mM ATP, 0.3 mM GTP and 10 mM HEPES, pH adjusted to 7.3 and osmolarity adjusted to 290-300 mOsm. To monitor changes in membrane voltage/potential, cells were patch clamped in current-clamp mode. Access resistances were in the range of 3-8 Mohm. Using Pulse, membrane potentials were recorded before, during and after illumination by the argon ion laser at 488 nm with an irradiance value of 0.458 mE s^−1 m^−2 or by a xenon lamp source through a 470/40 nm bandpass excitation filter with an irradiance value of 0.480 mE s^−1 m^−2. […]
Initial attempts were tied to INS and HEK cells, both cells that are not excitable under normal conditions (INS cells were maintained in low glucose <3 mM to prevent action potentials). […] To monitor the plasma membrane potential, the cells were patch-clamped in whole-cell configuration in current-clamp mode and membrane voltages were recorded while illuminating the cell at 488 nm (0.46-0.48 mE s^−1 m^−2), though other wavelengths are useful, depending on the embodiment.

[1] = system: whole-mount retinas from RCS rats; assay: Whole-mount retina multi-electrode array recording; assay type: cell-based, rat
Source text: FIGS. 14A-14B depicts data from whole-mount retinas from RCS rats. […] Each bin represents the frequency of spikes for 1 second. Before Rubpy treatment (14A), illumination at 480 nm elicited minimal change in spike frequency. […] Downward arrows mark the time of 100 ms (1st) and 1 second (2nd to fourth) light stimuli.
The retina will be freshly dissected from Royal College of Surgeons (RCS) rats (9 months' or older to ensure total loss of photoreceptors). The whole-mount retina will then be placed onto a multi-electrode array with the ganglion cell layer side facing the electrodes and is held down on the array using a lightly weighted porous membrane. Extracellular field potentials are recorded from 15 or 75 μm diameter electrodes using an MEA1060-Up amplifier and MC Rack software (Multi-Channel Systems). The activity of the retinal in response to illumination is monitored before and after PVN incubation. The retina is continuously perfused with oxygenated (95% O2, 5% CO2), heated (32C) Ames' Medium for baseline activity. The retina is then perfused with Ames' Medium containing PVN for 30 min to 1 hr, followed by 10 min wash with regular Ames' Medium before recording in Ames' Medium with 5-10 mM ascorbate. The retina will be illuminated by white LED light through a bandpass excitation filter (460-500 nm) with durations of 100 μs, 1 ms, 10 ms, 100 ms, 1 s and 30 s. […]

chromaffin cells [2] = assay: Voltage-clamp current-voltage relationship and steady-state activation before and during light; assay type: cell-based, mouse; details: before vs during light illumination
Source text: (§1) FIGS. 5A-5H depict data from various experiments related to characteristics of RubpyC17-loaded cells. […] Inset images shown to the right of trace confirmed proper integration of RubpyC17 in patched cells. FIGS. 5C-5E show the light-induced action potential firing in chromaffin cells was not due to biophysical changes in voltage-gated ion channels as there were no significant changes in current-voltage relationships (C-D) nor in steady-state activation curve (E) in RubpyC17-loaded chromaffin cells before (open circle) or during ([…]) light illumination. […] Peak inward currents from each stimulation jump were plotted against corresponding stimulating voltages (n=6). […] Data from representative cell is shown (n=5). […] Currents resulting from capacitor-like behavior of chromaffin cell membranes during hyperpolarizing jumps to −85 mV from a resting membrane potential of −80 mV were recorded 5 min following giga-seal formation for amphoterecin B (bottom trace) or 10 min following giga-seal formation for RubpyC17 (top trace).
To examine whether light-activated RubpyC17 can directly interact and open or block endogenous ion channels, HEK293T cells were preincubated with RubpyC17, and patch-clamped in a voltage-clamp configuration. Voltage-clamp configuration allowed the cells to be clamped at a potential where most voltage-gated ion channels are closed (approximately −80 mV). […]

chromaffin cells [3] = assay: Cell-attached membrane perforation test (capacitive charging transient); assay type: cell-based, mouse; details: 18 μM in patch pipette; 10 minutes after gigaseal formation
Source text: as §1
Finally, to test whether illumination of RubpyC17 incorporated in cell membranes causes nonspecific membrane poration or other damage, 18 μM RubpyC17 was loaded inside a patch pipette and attached to a cell (gigaseal formation) in the cell-attached configuration. […]

For [Ru(bpy)2(bpy-C17)](PF6)2 [RubpyC17], the light-induced depolarization (HEK293T cells; 10 μM ~2 min preincubation, 2 mM ascorbate, 488 nm) was 14.6 ± 2.4 mV, the light-induced hyperpolarization (HEK293T cells; 100 uM ferricyanide in extracellular solution) was 20.9 ± 4.9 mV and the “light-induced depolarization with ferrocyanide as reductant” value (HEK293T cells; 0.1 mM ferrocyanide) was “light-induced depolarization was also observed”. The “spike frequency on illumination” value ([1]; 100 micromolar for 30 minutes, 480 nm) was “spike frequency increased”, the “light-induced action potential firing” value ([1]; photoreceptor-degenerate retina) was “respond to illumination by firing action potentials” and the “effect on biophysical properties of endogenous ion channels (I-V, steady-state activation)” value (chromaffin cells [2]) was “does not alter the biophysical properties of endogenous ion channels”. The “capacitive charging transient (membrane perforation)” value (chromaffin cells [3]) was “an increase in the capacitive charging transient was not detected”.
